Patent US9586914B2, “Modulators of C3a receptors” (THE UNIVERSITY OF QUEENSLAND, priority 2011, dated 2017)
Like-named read-outs stand apart in the source and are kept apart here.

Tests used:
[1] = biological target: T1, C3aR (Homo sapiens, UniProt Q16581); assay: Calcium mobilization assay in HMDM (agonist/antagonist activity); assay type: cell-based; details: for Emax at 10 µM: read-out: % agonist
T1 construct: peripheral blood mononuclear cells were isolated from buffy coat (obtained from Australian Red Cross Blood Service, Kelvin Grove); endogenous in cells; host or cells: primary human monocyte-derived macrophages (HMDM) differentiated from CD14+ monocytes of donor buffy coat
T1 sequence (Q16581 1-482): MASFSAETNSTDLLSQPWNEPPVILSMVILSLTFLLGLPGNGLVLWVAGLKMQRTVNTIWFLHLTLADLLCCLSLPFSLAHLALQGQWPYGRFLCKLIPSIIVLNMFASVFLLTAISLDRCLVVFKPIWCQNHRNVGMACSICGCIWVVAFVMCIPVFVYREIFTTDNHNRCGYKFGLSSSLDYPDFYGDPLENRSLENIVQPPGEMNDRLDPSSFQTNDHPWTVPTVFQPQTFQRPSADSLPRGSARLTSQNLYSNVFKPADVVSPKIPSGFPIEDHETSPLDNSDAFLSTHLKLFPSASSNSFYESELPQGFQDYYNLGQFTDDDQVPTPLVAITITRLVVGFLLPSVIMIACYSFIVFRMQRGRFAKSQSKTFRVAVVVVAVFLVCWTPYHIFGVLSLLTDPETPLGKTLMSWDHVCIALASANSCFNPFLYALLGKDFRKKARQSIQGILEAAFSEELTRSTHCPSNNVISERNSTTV
Experimental: Harvested HMDM cells were washed with 0.9% NaCl solution by centrifugation at 2500 rpm for 5 min, followed by resuspension of the cell pellet with complete media. Cells were seeded at 5×10^4 cells/well in a 96-well black-wall, clear bottom plate (DKSH, Zurich), and left overnight to adhere at 37° C. On the day of the experiment, supernatant was removed and cells were incubated in dye loading buffer (Hank's Balanced Salt Solution (HBSS) with 4 μM Fluo-3, 25 μL pluronic acid, 1% fetal bovine serum (FBS) and 2.5 mM probenecid) for one hour at 37° C. Cells were then washed twice with HBSS and transferred to a Fluorostar spectrofluorimeter (BMG, Durham N.C.) for oxazole compound injection and fluorescence measurements.
Various compounds were examined in the calcium mobilization assay for agonist or antagonist activity compared to hC3a and to the known antagonist SB290157.
HMDMs were seeded into black-wall, clear bottom 96-well plates (Corning Incorporated, NY) at 50,000 cells/well and left to incubate at 37° C. with 5% CO2 overnight for cells to adhere. The medium was removed before being washed with the assay buffer (1×HBSS, 20 mM HEPES, 2.5 mM probenecid, pH 7.4). To each well was added 100 μL of dye-loading buffer made up of 12 mL calcium buffer, 1% FBS, 25 μL of Fluo-3 dye (final concentration of 4 μM) and 25 μL of 20% pluronic acid. The plate was covered in aluminium foil to protect the light-sensitive dye and left to incubate at 37° C. for 1 h. The dye-loading buffer was removed before the cells were washed with the assay buffer to remove excess loading dye. To each well was added 50 μL of fresh assay buffer before the plate was loaded into a FLIPR (Fluorescent Imaging Plate Reader) that can inject treatments and measure any calcium release. To generate agonist plots, calcium release was monitored for 300 seconds. To generate antagonist plots, calcium release was recorded for 900 seconds, which at the same time would allow incubation for the antagonists. After the initial incubation period, an agonist would be added and the response was recorded for 300 seconds. Intracellular release of calcium was recorded via fluorescence measurements at wavelength of 485 nm for excitation and 520 nm for emission.

[2] = biological target: T2, C3a receptor (C3aR) (Homo sapiens, UniProt Q16581); assay: Competitive binding with [^125I]-C3a in HMDM; details: for remaining activity at 20 µM: 1 h, read-out: %[^125I]-C3a binding
T2 construct: peripheral blood mononuclear cells were isolated from buffy coat (obtained from Australian Red Cross Blood Service, Kelvin Grove); endogenous in cells; host or cells: primary human monocyte-derived macrophages (HMDM) differentiated from CD14+ monocytes of donor buffy coat
T2 sequence (Q16581 1-482): T1 sequence (Q16581 1-482)
Description: For HMDM, peripheral blood mononuclear cells were isolated from buffy coat (obtained from Australian Red Cross Blood Service, Kelvin Grove) using Ficoll-paque density centrifugation (GE Healthcare Bio-Science, Uppsala, Sweden). CD^14+ monocytes were positively selected using CD^14+ MACS magnetic beads (Miltenyi Biotech, Auburn, Calif., USA). […] Cells were harvested by gentle scraping in saline solution and replated for use on Day 7. […] Unbound radioactivity was removed by filtration through glass microfiber filters GF/B (Whatman Iner. […] The filter was washed 3 times with cold buffer (50 mM Tris-HCl) pH 7.4. […] The −log IC50 for each compound was calculated for separate experiments and express as an arithmetic mean standard error (SE). IC50 values were expressed as a geometric mean.

[3] = Table 6, competitive binding with [^125I]-C3a, HMDM, read-out: pIC50 ± SEM (converted)
[4] = Table 9, Ca^2+ mobilization, HMDM, read-out: EC50
[5] = Table 10, HMDM, read-out: Antagonist Activity Ca^2+ IC50
[6] = Table 12, read-out: Apparent Agonist Activity EC50
[7] = Table 6, competitive binding with [^125I]-C3a, HMDM, read-out: IC50 (converted)
[8] = Table 8, HMDM, read-out: Receptor Binding Affinity ^125I IC50
[9] = Table 12, read-out: Receptor Binding Affinity IC50
[10] = Table 14, binding affinity for C3aR on HMDM
[11] = Table 14, binding affinity for C3aR on HMDM, read-out: -Log IC50 (converted)
[12] = Table 10, HMDM, read-out: Agonist Activity EC50

Row | Compound | IC50 [1, 5] | IC50 [2, 8] | Emax at 10 µM [1] | remaining activity at 20 µM [2] | also measured
1 | COc1ccccc1CC(=O)N[C@@H](CC(C)C)c1nc(C(=O)N[C@@H](CCCNC(=N)N)C(=O)O)c(C)o1 [Compound 37, 2-Methoxy-phenylacetic acid-Leucine-5-Methyl-Oxazole-Arginine] | – | – | 81% | 43% | –
2 | COc1cccc(CC(=O)N[C@@H](CC(C)C)c2nc(C(=O)N[C@@H](CCCNC(=N)N)C(=O)O)c(C)o2)c1 [Compound 38, 3-Methoxy-phenylacetic acid-Leucine-5-Methyl-Oxazole-Arginin] | – | – | 87% | 41% | –
3 | COc1ccc(CC(=O)N[C@@H](CC(C)C)c2nc(C(=O)N[C@@H](CCCNC(=N)N)C(=O)O)c(C)o2)cc1 [Compound 39, 4-Methoxy-phenylacetic acid-Leucine-5-Methyl-Oxazole-Arginine] | – | – | 26% | 40% | –
4 | Cc1oc([C@H](CC(C)C)NS(=O)(=O)c2ccccc2)nc1C(=O)N[C@@H](CCCNC(=N)N)C(=O)O [Compound 40, Phenyl sulfonamide-Leucine-5-Methyl-Oxazole-Arginine] | – | – | 103% | 44% | –
5 | COc1ccc(CCC(=O)N[C@@H](CC(C)C)c2nc(C(=O)N[C@@H](CCCNC(=N)N)C(=O)O)c(C)o2)cc1 [Compound 41, 3-(4-Methoxyphenyl)propionic acid-Leucine-5-Methyl-Oxazole-Arginine] | – | – | 44% | 44% | –
6 | COc1ccc(CC(=O)N[C@@H](CC(C)C)c2nc(C(=O)N[C@@H](CCCNC(=N)N)C(=O)O)c(C)o2)cc1OC [Compound 43, 3,4-Dimethoxy-phenyl acetic acid-Leucine-5-Methyl-Oxazole-Arginine] | – | – | 67% | 65% | –
7 | COc1ccc(OC)c(CC(=O)N[C@@H](CC(C)C)c2nc(C(=O)N[C@@H](CCCNC(=N)N)C(=O)O)c(C)o2)c1 [Compound 44, 2,5-Dimethoxy-phenyl acetic acid-Leucine-5-Methyl-Oxazole-Arginine] | – | – | 69% | 42% | –
8 | Cc1oc([C@H](CC(C)C)NC(=O)NCc2ccccc2)nc1C(=O)N[C@@H](CCCNC(=N)N)C(=O)O [Compound 46, Benzylisocyanate-Leucine-5-Methyl-Oxazole-Arginine] | – | – | 50% | 61% | –
9 | Cc1oc([C@H](CC(C)C)NC(=O)Cc2ccc(/N=N/c3ccccc3)cc2)nc1C(=O)N[C@@H](CCCNC(=N)N)C(=O)O [Compound 47, Phenyl hydrazine-Benzeneacetic acid-Leucine-5-Methyl-Oxazole-Arginine] | – | – | 48% | 49% | –
10 | Cc1oc([C@H](CC(C)C)NC(=O)c2cncc(Br)c2)nc1C(=O)N[C@@H](CCCNC(=N)N)C(=O)O [Compound 48, 5-Bromonicotinic acid-Leucine-5-Methyl-Oxazole-Arginine] | – | – | 68% | 32% | –
11 | CC(C)C[C@H](NC(=O)OC(C)(C)C)c1nc(C(=O)N[C@@H](CCCNC(=N)N)C(=O)O)c(-c2ccccc2)o1 [Compound 50, Boc-Leucine-5-Phenyl-Oxazole-Arginine] | – | – | – | – | Apparent Antagonist Activity pEC50 ± SE (symbol) ([1]; Table 11): * (The compounds show no agonist activity in calcium mobilisation assays up to 100 μM.); IC50 ([1]; Table 11, Ca^2+ mobilisation, HMDM, read-out: Apparent Antagonist Activity IC50): 0.0165 µM; IC50 [2, 3]: 0.0372 µM; IC50 ([2]; Table 11, [^125I]-C3a, HMDM, read-out: Receptor Binding Affinity pIC50 ± SE (converted)): 0.0372 µM

More lines, main results first:

Row | IC50 [1, 5] | IC50 [2, 8] | Compound | Emax at 10 µM [1] | remaining activity at 20 µM [2] | also measured
12 | 0.02 µM | 0.001 µM | N=C(N)NCCC[C@H](NC(=O)c1coc(C(c2ccccc2)c2ccccc2)n1)C(=O)O [Compound 56, 2-Diphenylmethyl-oxazole-4-carboxyl-Arg-OH] | – | – | EC50 [1, 4]: 0.0066 µM; Agonist Activity (in words) ([1]; Table 10, HMDM): partial agonist; EC50 [1, 6]: 0.0066 µM; IC50 [2, 7]: 0.037 µM; IC50 [2, 3]: 0.0372 µM; IC50 ([2]; Table 12, read-out: Receptor Binding Affinity pIC50 ± SE (converted)): 0.0372 µM
13 | 2.9 µM | 0.012 µM | Cc1nc(C(c2ccccc2)c2ccccc2)oc1C(=O)N[C@@H](CCCNC(=N)N)C(=O)O [Compound 58, 2-Diphenylmethyl-4-methyl oxazole-5-carboxyl-Arg-OH] | – | – | Apparent Agonist Activity pEC50 ± SE (symbol) ([1]; Table 12): φ (compound showed no agonist activity up to 100 μM.); IC50 [2, 7]: 0.606 µM; IC50 [2, 3]: 0.603 µM; IC50 [2, 9]: 0.606 µM; -Log IC50 [2, 10]: 7.0
14 | 1 µM | 0.038 µM | Cc1nc(C(c2ccccc2)c2ccccc2)sc1C(=O)N[C@@H](CCCNC(=N)N)C(=O)O [Compound 59, 2-Diphenylmethyl-4-methyl thiazole-5-carboxyl-Arg-OH] | – | – | EC50 [1, 4]: 74.8 µM; EC50 [1, 6]: 74.8 µM; IC50 [2, 7]: 0.038 µM; IC50 [2, 3]: 0.0912 µM; IC50 [2, 9]: 0.091 µM; IC50 [2, 11]: 0.0126 µM
15 | 0.07 µM | 0.14 µM | N=C(N)NCCC[C@H](NC(=O)c1ccc(C(c2ccccc2)c2ccccc2)s1)C(=O)O [Compound 60, 5-Diphenylmethyl-thiophene-2-carboxyl-Arg-OH] | – | – | EC50 [1, 12]: > 100 µM; IC50 [2, 11]: 0.0631 µM
16 | 0.03 µM | 0.74 µM | Cc1oc(C(c2ccccc2)c2ccccc2)nc1C(=O)N[C@@H](CCCNC(=N)N)C(=O)O [Compound 61, 2-Diphenylmethyl-5-methyl oxazole-4-carboxyl-Arg-OH] | – | – | Agonist Activity (in words) ([1]; Table 10, HMDM): partial agonist; -Log IC50 [2, 10]: 8.0
17 | 0.6 µM | 0.046 µM | N=C(N)NCCC[C@H](NC(=O)c1nc(C(c2ccccc2)c2ccccc2)[nH]c1-c1ccccc1)C(=O)O [Compound 62, 2-Diphenylmethyl-4-phenyl imidazole-5-carboxyl-Arg-OH] | – | – | EC50 [1, 12]: > 100 µM
18 | 67 µM | 3.37 µM | N=C(N)NCCC[C@H](NC(=O)c1sc(C(c2ccccc2)c2ccccc2)nc1-c1ccccc1)C(=O)O [Compound 65, 2-Diphenylmethyl-4-phenyl thiazole-5-carboxyl-Arg-OH] | – | – | –
19 | 2 µM | 0.123 µM | N=C(N)NCCC[C@H](NC(=O)c1oc(C(c2ccccc2)c2ccccc2)nc1-c1ccccc1)C(=O)O [Compound 66, 2-Diphenylmethyl-4-phenyl oxazole-5-carboxyl-Arg-OH] | – | – | –
20 | 1.3 µM | 0.011 µM | N=C(N)NCCC[C@H](NC(=O)c1nc(C(c2ccccc2)c2ccccc2)no1)C(=O)O [Compound 67, 3-Diphenylmethyl-1-oxa-2,4-diazole-5-carboxyl-Arginine-OH] | – | – | -Log IC50 [2, 10]: 7.9
21 | 1.2 µM | 0.447 µM | N=C(N)NCCC[C@H](NC(=O)c1noc(C(c2ccccc2)c2ccccc2)n1)C(=O)O [Compound 68, 5-Diphenylmethyl-1-oxa-2,4-diazole-3-carboxyl-Arginine-OH] | – | – | –
22 | 24 µM | 2.58 µM | N=C(N)NCCC[C@H](NC(=O)c1nnc(C(c2ccccc2)c2ccccc2)o1)C(=O)O [Compound 69, 2-Diphenylmethyl-1-oxa-3,4-diazole-5-carboxyl-Arginine-OH] | – | – | –
